Assay results reported in ChEMBL document CHEMBL1773071, “Development of tricyclic hydroxy-1H-pyrrolopyridine-trione containing HIV-1 integrase inhibitors” (Bioorg Med Chem Lett, 2011).

Columns and labels:
[1] = molecular target: T1, Human immunodeficiency virus type 1 integrase (Human immunodeficiency virus 1, UniProt Q7ZJM1); assay: Inhibition of HIV1 recombinant integrase 3'-processing activity expressed in Escherichia coli after 30 mins using [32P]-labeled oligonucleotide as a substrate by densitometric analysis
[2] = molecular target: T1, Human immunodeficiency virus type 1 integrase; assay: Inhibition of HIV1 recombinant integrase strand transfer activity expressed in Escherichia coli after 30 mins using [32P]-labeled oligonucleotide as a substrate by densitometric analysis
[3] = system: Human immunodeficiency virus 1; assay: Antiviral activity against HIV1 harboring wild-type integrase infected in human HOS cells; format: functional, organism-based; details: Human immunodeficiency virus 1, HOS
[4] = molecular target: T1, Human immunodeficiency virus type 1 integrase; assay: Inhibition of HIV1 recombinant integrase 3'-processing activity expressed in Escherichia coli after 60 mins using [32P]-labeled oligonucleotide as a substrate by densitometric analysis in presence of cofactor magnesium
[5] = molecular target: T1, Human immunodeficiency virus type 1 integrase; assay: Inhibition of HIV1 recombinant integrase 3'-processing activity expressed in Escherichia coli after 60 mins using [32P]-labeled oligonucleotide as a substrate by densitometric analysis in presence of cofactor manganese
[6] = molecular target: T1, Human immunodeficiency virus type 1 integrase; assay: Inhibition of HIV1 recombinant integrase strand transfer activity expressed in Escherichia coli after 60 mins using [32P]-labeled oligonucleotide as a substrate by densitometric analysis in presence of cofactor magnesium
[7] = molecular target: T1, Human immunodeficiency virus type 1 integrase; assay: Inhibition of HIV1 recombinant integrase strand transfer activity expressed in Escherichia coli after 60 mins using [32P]-labeled oligonucleotide as a substrate by densitometric analysis in presence of cofactor manganese
HOS = assay: Cytotoxicity against human HOS cells assessed as ATP level after 48 hrs by luciferase reporter assay; format: cell-based
[8] = system: Human immunodeficiency virus 1; assay: Resistant fold, ratio of EC50 for HIV1 harboring integrase G140S/Q148H mutant to EC50 for HIV1 harboring wild-type integrase; format: functional
[9] = system: Human immunodeficiency virus 1; assay: Resistant fold, ratio of EC50 for HIV1 harboring integrase Y143R mutant to EC50 for HIV1 harboring wild-type integrase; format: functional
[10] = system: Human immunodeficiency virus 1; assay: Resistant fold, ratio of EC50 for HIV1 harboring integrase N155H mutant to EC50 for HIV1 harboring wild-type integrase; format: functional

T1 sequence (Q7ZJM1 whole entry): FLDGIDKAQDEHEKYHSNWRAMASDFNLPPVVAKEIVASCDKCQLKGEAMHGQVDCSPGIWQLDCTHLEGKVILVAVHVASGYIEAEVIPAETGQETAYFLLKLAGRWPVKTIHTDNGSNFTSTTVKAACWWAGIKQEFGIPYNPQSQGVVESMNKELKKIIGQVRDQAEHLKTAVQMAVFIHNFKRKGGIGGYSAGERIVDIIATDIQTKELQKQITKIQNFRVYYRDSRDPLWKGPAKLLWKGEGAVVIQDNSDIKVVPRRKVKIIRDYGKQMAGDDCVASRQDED

Row | SMILES | IC50 [1] | IC50 [2] | further results
1 | O=C1c2c(c3n(c(=O)c2O)CCC3)C(=O)N1Cc1ccc(F)c(Cl)c1 | > 111 µM | 10.9 µM | –
2 | O=C1c2c(c3n(c(=O)c2O)CCCCC3)C(=O)N1Cc1ccc(F)cc1 | > 111 µM | 10.4 µM | –
3 | Cc1nnc(C(=O)NC(C)(C)c2nc(C(=O)NCc3ccc(F)cc3)c(O)c(=O)n2C)o1 | – | – | EC50 [3]: 0.004 µM
4 | O=C1c2c(c3n(c(=O)c2O)CCCCC3)C(=O)N1Cc1cccc(Cl)c1F | > 111 µM | 9.2 µM | –
5 | O=C1c2c(c3n(c(=O)c2O)CCCCC3)C(=O)N1Cc1ccccc1 | > 111 µM | > 111 µM | –
6 | O=C1c2c(c3n(c(=O)c2O)CCCCC3)C(=O)N1Cc1ccc(F)c(Cl)c1 | > 111 µM | 6 µM | –
7 | O=C1c2ccc(O)c(O)c2C(=O)N1Cc1cccc(Cl)c1F | – | 1.7 µM | –
8 | O=C1c2c(c3n(c(=O)c2O)CCCCC3)C(=O)N1Cc1cccc2ccccc12 | > 111 µM | 90.5 µM | –
9 | O=C1c2c(c3n(c(=O)c2O)CCCC3)C(=O)N1Cc1ccc(F)c(Cl)c1 | > 111 µM | 9.1 µM | IC50 [4]: > 111 µM; IC50 [5]: 28 µM; IC50 [6]: 9.1 µM; IC50 [7]: 1.2 µM; CC50 (HOS): 291 µM; EC50 [3]: 61 µM; Ratio EC50 [8]: 2; Ratio EC50 [9]: 4; Ratio EC50 [10]: 3
10 | O=C1c2ccc(O)c(O)c2C(=O)N1Cc1ccc(F)c(F)c1 | – | 0.14 µM | –
11 | O=C1c2c(c3n(c(=O)c2O)CCCCCC3)C(=O)N1Cc1ccc(F)c(Cl)c1 | > 111 µM | 5.4 µM | –
12 | O=C1c2ccc(O)c(O)c2C(=O)N1Cc1ccc(F)cc1 | – | 5.3 µM | –
13 | O=C1c2c(c3n(c(=O)c2O)CCCCC3)C(=O)N1Cc1ccc(F)c(F)c1 | > 111 µM | 6.01 µM | –
